According to publication PMC10442441, “Characterization of two O-methyltransferases involved in the biosynthesis of O-methylated catechins in tea plant” (Nature Communications, 2023):
Like-named read-outs stand apart in the source and are kept apart here.

Target: T1, CsFAOMT1 (Camellia sinensis, UniProt A0A7J7GXF2)
T1 construct: gene HYC85_015345
Settings: 1.0 mM Mg2+, pH 7.4, 40 °C, exact value in supplement

T1 sequence (A0A7J7GXF2 entry or part of it): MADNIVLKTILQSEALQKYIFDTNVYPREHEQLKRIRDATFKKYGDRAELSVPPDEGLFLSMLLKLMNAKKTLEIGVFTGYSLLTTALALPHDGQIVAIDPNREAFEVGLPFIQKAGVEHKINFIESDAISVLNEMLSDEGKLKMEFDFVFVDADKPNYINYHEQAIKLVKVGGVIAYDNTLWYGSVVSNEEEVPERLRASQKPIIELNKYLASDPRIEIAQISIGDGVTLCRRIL

| Km (1 mM SAM) [µM] | Km (saturating SAM) [µM] | Compound |
| --- | --- | --- |
| > 2500 | – | O=c1c(O[C@@H]2O[C@H](CO)[C@@H](O)[C@H](O)[C@H]2O)c(-c2ccc(O)c(O)c2)oc2cc(O)cc(O)c12 [isoquercitrin] |
| – | < 4 | COC(=O)c1cc(O)c(O)c(O)c1 [methyl gallate] |
| – | < 4 | O=c1c(O)c(-c2cc(O)c(O)c(O)c2)oc2cc(O)cc(O)c12 [myricetin] |
